Data as given in publication PMC12197210, “mPEG-PCL Nanoparticles to Improve Oral Bioavailability of Acalabrutinib: Effect of Polymer Lipophilicity and Hydrophilicity on Physicochemical Properties and In Vivo Performance in Rats” (Pharmaceutics, 2025).
Converted amounts (≈) assume the structure as drawn. Where two headings read alike, the source gives them in different places.

Columns and labels:
CYP3A enzyme system = tested on: CYP3A enzyme system; design: method as in earlier work; conditions: cited from earlier work
[1] = tested on: P-glycoprotein (P-gp) efflux transporter; design: method as in earlier work; conditions: cited from earlier work
[2] = cited from earlier work
[3] = In vitro dissolution/drug release, USP Type II apparatus, membrane-less method; assay type: physicochemical
Procedure: A membrane-less method using a USP Type II dissolution apparatus (Manual operating model with 8 stations, Electrolab (India) Pvt. Ltd., Mumbai, India) was employed to evaluate the dissolution and drug release behavior of both bulk ACP and freeze-dried ACP-PLHNs (both types, equivalent to 100 mg free base) under physiological pH conditions. The gastrointestinal pH was simulated with three different buffer solutions: a 0.1 N HCl buffer (pH 1.2 ± 0.02, volume = 250 mL) representing the fasted stomach; an acetate buffer (pH 4.5 ± 0.02, volume = 250 mL) representing the fed stomach; and a phosphate buffer solution (PBS, pH 6.8 ± 0.02, volume = 900 mL) representing the intestinal environment. To simulate blood/plasma conditions, 500 mL of PBS (pH 7.2 ± 0.02) was used. To maintain sink conditions, 0.5% w/v sodium dodecyl sulfate (SDS) was added to media with pH ≥ 4.5, and the volume of medium was kept at 3× the volume required to maintain the saturation solubility of ACP. The formulations were dispersed in the dissolution media, which was continuously stirred at 75 rpm and maintained at 37 ± 2 °C. Samples (1000 μL) were withdrawn at specific time intervals and replaced with an equal volume of fresh media (pre-heated to 37 ± 2 °C). The samples were then centrifuged at 15,373× g for 5 min, and the supernatant was collected, diluted with the mobile phase (methanol and a 10 mM ammonium acetate buffer, pH 3.5, in a 52:48 v/v ratio), and analyzed using the HPLC-UV method outlined in Section 2.3.3. The dissolution data were fitted to different mathematical models to determine the drug release kinetics. The best-fitting model was identified based on the regression coefficient.

[4] = design: method as in earlier work; conditions: cited from earlier work

time to complete dissolution ([3]; pH 1.2, sink conditions): ≤ 30 min | time to complete dissolution ([3]; pH 4.5, sink conditions): ≤ 30 min | time of complete (100%) release/dissolution ([3]; pH 6.8, sink conditions): ≤ 2 h | time of complete (100%) release/dissolution ([3]; pH 7.2, sink conditions): ≤ 4 h
SMILES: CC#CC(=O)N1CCC[C@H]1c1nc(-c2ccc(C(=O)Nc3ccccn3)cc2)c2c(N)nccn12 [ACP, Acalabrutinib]
metabolism by CYP3A (CYP3A enzyme system): metabolized by the CYP3A enzyme system | P-gp efflux transporter substrate status [1]: substrate | aqueous solubility ([2]; pH 1): 29.2 mg/mL (≈ 62700 µM) | aqueous solubility ([2]; pH 4.5): 0.159 mg/mL (≈ 342 µM) | aqueous solubility ([2]; pH 6.8): 0.0523 mg/mL (≈ 112 µM) | solubility ([2]; pH values above 6): practically insoluble | oral bioavailability [4]: 25 ± 11%
